Experiments:
[1] = test system: KB; experiment: Hoechst 33342 nuclear staining (Table 3); format: cell-based, human; parameters: key: 0 relating to no activity; 1 relating to weak activity comprising less than 50% of the cells; score 2 relating to strong activity comprising more than 50% of the cells
How it was run: (§1)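 Adherent cells (3-5×10^3, pre-spread 24 h) or suspension cells (8-10×10^3) treated with compounds at 10, 3, 1 and 0.3 µM for 24 or 48 h, then Hoechst 33342 stained for 30 min. Apoptotic nuclear morphology scored by fluorescence microscopy: 0 none, 1 weak (<50% cells), 2 strong (>50% cells).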

[2] = test system: Jurkat; experiment: Hoechst 33342 nuclear staining (Table 3); format: cell-based, human; parameters: key: 0 relating to no activity; 1 relating to weak activity comprising less than 50% of the cells; score 2 relating to strong activity comprising more than 50% of the cells
How it was run: as §1

[3] = test system: HeLa; experiment: Hoechst 33342 nuclear staining (Table 3); format: cell-based, human; parameters: key: 0 relating to no activity; 1 relating to weak activity comprising less than 50% of the cells; score 2 relating to strong activity comprising more than 50% of the cells
How it was run: as §1

[4] = test system: K562; experiment: Hoechst 33342 nuclear staining (Table 3); format: cell-based, human; parameters: key: 0 relating to no activity; 1 relating to weak activity comprising less than 50% of the cells; score 2 relating to strong activity comprising more than 50% of the cells
How it was run: as §1

[5] = test system: Ramos; experiment: AnnexinV/7-AAD staining; format: cell-based, human; conditions: 10 µM, 24 h treatment
How it was run: (§2)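 Cells treated with compound at 10 µM final for 24 h, then stained with AnnexinV-GST/anti-GST Alexa 488 and 7-AAD and analysed by flow cytometry. Percent positive cells scored as 0 (<10%), 1 (10–50%) or 2 (>50%).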

[6] = test system: Jurkat; experiment: AnnexinV/7-AAD staining; format: cell-based, human; conditions: 10 µM, 24 h treatment
How it was run: as §2

[7] = test system: HeLa; experiment: AnnexinV/7-AAD staining; format: cell-based, human; conditions: 10 µM, 24 h treatment
How it was run: as §2

[8] = test system: A20; experiment: AnnexinV/7-AAD staining; format: cell-based, mouse; conditions: A20, 10 µM, 24 h treatment
How it was run: as §2

For `CC1(C)Cc2ccccc2-c2c(Br)c3nc4ccccc4nc3n21` [No. 2, 13-Bromo-6,6-dimethyl-5,6-dihydro-6a,7,12-triaza-dibenzo[a,h]fluorene], the “Hoechst 33342 nuclear staining” value ([1]; 24h, conc 0.3 (µM)) was 0, the “Hoechst 33342 nuclear staining” value ([1]; 24h, conc 1 (µM)) was 0 and the “Hoechst 33342 nuclear staining” value ([1]; 24h, conc 3 (µM)) was 0. The “Hoechst 33342 nuclear staining” value ([1]; 24h, conc 10 (µM)) was 0, the “Hoechst 33342 nuclear staining” value ([1]; 48h, conc 0.3 (µM)) was 0 and the “Hoechst 33342 nuclear staining” value ([1]; 48h, conc 1 (µM)) was 0. The “Hoechst 33342 nuclear staining” value ([1]; 48h, conc 3 (µM)) was 0, the “Hoechst 33342 nuclear staining” value ([1]; 48h, conc 10 (µM)) was 0 and the “Hoechst 33342 nuclear staining” value ([2]; 24h, conc 0.3 (µM)) was 1 (1 relating to weak activity comprising less than 50% of the cells). The “Hoechst 33342 nuclear staining” value ([2]; 24h, conc 1 (µM)) was 1 (1 relating to weak activity comprising less than 50% of the cells), the “Hoechst 33342 nuclear staining” value ([2]; 24h, conc 3 (µM)) was 2 (score 2 relating to strong activity comprising more than 50% of the cells) and the “Hoechst 33342 nuclear staining” value ([2]; 24h, conc 10 (µM)) was 2 (score 2 relating to strong activity comprising more than 50% of the cells). The “Hoechst 33342 nuclear staining” value ([2]; 48h, conc 0.3 (µM)) was 2 (score 2 relating to strong activity comprising more than 50% of the cells), the “Hoechst 33342 nuclear staining” value ([2]; 48h, conc 1 (µM)) was 2 (score 2 relating to strong activity comprising more than 50% of the cells) and the “Hoechst 33342 nuclear staining” value ([2]; 48h, conc 3 (µM)) was 2 (score 2 relating to strong activity comprising more than 50% of the cells). For the same molecule, the “Hoechst 33342 nuclear staining” value ([2]; 48h, conc 10 (µM)) was 2 (score 2 relating to strong activity comprising more than 50% of the cells), the “Hoechst 33342 nuclear staining” value ([3]; 24h, conc 0.3 (µM)) was 0 and the “Hoechst 33342 nuclear staining” value ([3]; 24h, conc 1 (µM)) was 0. The “Hoechst 33342 nuclear staining” value ([3]; 24h, conc 3 (µM)) was 0, the “Hoechst 33342 nuclear staining” value ([3]; 24h, conc 10 (µM)) was 0 and the “Hoechst 33342 nuclear staining” value ([3]; 48h, conc 0.3 (µM)) was 0. For the same molecule, the “Hoechst 33342 nuclear staining” value ([3]; 48h, conc 1 (µM)) was 1 (1 relating to weak activity comprising less than 50% of the cells), the “Hoechst 33342 nuclear staining” value ([3]; 48h, conc 3 (µM)) was 2 (score 2 relating to strong activity comprising more than 50% of the cells) and the “Hoechst 33342 nuclear staining” value ([3]; 48h, conc 10 (µM)) was 2 (score 2 relating to strong activity comprising more than 50% of the cells). The “Hoechst 33342 nuclear staining” value ([4]; K562, 24h, conc 0.3 (µM)) was 0, the “Hoechst 33342 nuclear staining” value ([4]; K562, 24h, conc 1 (µM)) was 0 and the “Hoechst 33342 nuclear staining” value ([4]; K562, 24h, conc 3 (µM)) was 1 (1 relating to weak activity comprising less than 50% of the cells). For the same molecule, the “Hoechst 33342 nuclear staining” value ([4]; K562, 48h, conc 0.3 (µM)) was 0, the “Hoechst 33342 nuclear staining” value ([4]; K562, 48h, conc 1 (µM)) was 0 and the “Hoechst 33342 nuclear staining” value ([4]; K562, 48h, conc 3 (µM)) was 2 (score 2 relating to strong activity comprising more than 50% of the cells). For the same molecule, the “Hoechst 33342 nuclear staining” value ([4]; K562, 48h, conc 10 (µM)) was 2 (score 2 relating to strong activity comprising more than 50% of the cells), the “percentage of positively stained cells (AnnexinV/7-AAD staining)” value (“percentage of positively stained cells” below) [5] was 2 (score 2 relates to more than 50% positivity) and the “percentage of positively stained cells” value [6] was 2 (score 2 relates to more than 50% positivity). For the same molecule, the “percentage of positively stained cells” value [7] was 1 (score 1 relates to more than 10% but less than 50%) and the “percentage of positively stained cells” value [8] was 2 (score 2 relates to more than 50% positivity).

From EP1433789A1, “Pyrrolopyrazines and their use as selective apoptosis inducers” (Aponetics AG, priority 2002, dated 2004)
